Experiments:
MCF-7/DOX^R cells = assay: MTT cytotoxicity against DOX-resistant MCF-7/DOX^R cells; conditions: 48 hrs incubation, pH 8.0-6.8
Description: DOX-resistant MCF-7 cells (MCF-7/DOX^R) were selected from MCF-7 cells (Korean Cell Line Bank (KCLB)) that were stepwise exposed at 0.001-10 mg/mL of free DOX. Here, cells were maintained in RPMI-1640 (Gibco, Uxbridge, UK) medium with 2 mM L-glutamine, 5% penicillin-streptomycin, and 10% fetal bovine serum in a humidified incubator 37° C. and 5% CO2 atmosphere.
For the cytotoxicity test of free DOX or drug-loaded polymeric micelles against sensitive MCF-7 or MCF-7/DOX^R cells, cells (5×10^4 cells/mL) growing as a monolayer, were seeded at 96-well dish in 200 mL of RPMI 1640 medium before 24 hrs. Free DOX or DOX loaded micelles in RPMI 1640 medium with pH 7.4 or 6.8 were prepared immediately before use as described above, added to medium-removed 96-well dish with different DOX concentration, and incubated for 48 hrs. Chemosensitivity was assessed using the tetrazolium salt MTT (Sigma Chemical Co.). Then, 100 mL of PBS pH 7.4 containing 20 mL of MTT (500 mg/L) solution was added to each well. The plates were incubated for an additional 4 hrs, and then 100 mL of DMSO was added to each well. The absorbance of each well was read on a microplate reader using a test wavelength of 570 nm and a reference wavelength 630 nm.

A2780/DOX^R tumor = system: A2780/DOX^R tumor; parameters: species or system nude mice; conditions: mouse, in vivo, iv
Description: To directly explore the extent of drug extravasation from the blood vessels and accumulation of DOX in the tumor, the time-dependent fluorescence intensity of DOX in the tumor sight was measured using a non-invasive skin fold window chamber model, which allows real-time measurements. To investigate the in situ delivery of polymeric micelles to solid tumors, a non-invasive visualization method using a “dorsal skin-fold window chamber model” was used. M. R. Dreher et al., Tumor vascular permeability, accumulation, and penetration of macromolecular drug carriers, 98 J. Nat'l Cancer Inst. 335-344 (2006). To establish the window chamber model, S. Shan et al., A novel rodent mammary window of orthotic breast cancer for intravital microscopy, 65 Microvasc. Res. 109-117 (2003), a flap of skin measuring 1 cm in diameter was dissected away from opposing surfaces of the dorsal skin flap of an anesthetized mouse, leaving a facial plane with its associated vasculature. The flaps were held vertically away from the body with a titanium saddle, which was sutured to both sides of the flap. […] DOX was incorporated into the polymeric micellar core, and DOX fluorescence imaging was captured in the skin dorsal window. […] Observation was made using intravital fluorescence microscopy (Olympus BX51WI Microscope, Leeds Precision Instruments, Inc., Minnesota) over time.

[1] = system: human breast MCF-7/DOX^R carcinoma xenografts; assay: Growth inhibition of human breast carcinoma (MCF-7/DOX^R) xenografts; type: in vivo; conditions: 10 mg/kg DOX equivalent i.v. days 0, 3 and 6
Description: Tumor volume was calculated using a formula, tumor volume=0.52×length×width×height. Dimensions were measured with an electronic digital caliper. Two to three weeks after inoculation (tumor volume 150-200 mm^3) in vivo antitumor studies were performed. Saline (control), free DOX, or DOX-loaded micelles in aqueous saline solution were injected intravenously through a tail vein by 1-3 bolus injections at three day intervals. The injection volume (approximately 0.1 mL/10 g body weight) of micelle preparation was adjusted to give 10 mg DOX/kg body weight. Five to eight mice per study were used. Tumor volume and body weight were monitored with elapsed time. A mean standard error was calculated for each experimental point.
For the preparation of doxorubicin-loaded micelles, doxorubicin.HCl (DOX.HCl, Sigma Chemical Co., St. Louis, Mo.) was desalted by stirring overnight in the presence of two molar equivalents of triethylamine (Sigma Chemical Co.) in DMSO (Sigma Chemical Co.). […] The amount of entrapped DOX was determined by measuring UV absorbance at 481 nm of the drug after dissolving micelles in DMSO. […]

## COc1cccc2c1C(=O)c1c(O)c3c(c(O)c1C2=O)C[C@@](O)(C(=O)CO)C[C@@H]3O[C@H]1C[C@H](N)[C@H](O)[C@H](C)O1 [free DOX, doxorubicin]
MCF-7/DOX^R cells
  cytotoxicity against MCF-7/DOX^R cells: little reduced
A2780/DOX^R tumor
  course of DOX fluorescence intensity in the tumor: declined after 20 min and became dark at 60 min
  time at which DOX fluorescence intensity in tumor started to appear: ≤ 7 min
[1]
  body weight change: more weight loss
